# “And” between values parts separate entries of the source, which are not always exact repeats. Equal entries are not always repeated.
# Tested on: Hep G2 cells
# Experiment: Cholesterol measurement in Hep G2 cells exposed to HMG CoA Reductase peptides
# Type: cell-based, human
# Conditions: 24 hrs; for Cholesterol Content Cell / Cholesterol Content Media: triplicate; for Total Cholesterol: cell + media
# Source text: Cholesterol Measurement in Hep G2 Cells Exposed to HMG CoA Reductase Peptides:
# A. Selection of therapeutic oligopeptides for these expenments • i. The peptides were selected according to the method described herein. In brief, 6 oligopeptides corresponding to the hydrophilic amino acid maxima of human hydroxy-methyl-glutaryl-CoA-reductase were selected according to the maximum hydrophilicity determining algorithm described herein. The following sequences were selected. • I. N-SQDEVREN-C (SEQ ID NO:42) • II. N-ELSRESREGR-C (SEQ ID NO:44) • III. N-RVLEEEENK-C (SEQ ID NO:46) • IV. N-QKCDSVEE-C (SEQ ID NO:56) • V. N-EETGINRERKVE-C (SEQ ID NO:60) • VI. N-EPEIELPREPRPNEE-C (SEQ ID NO:64)
# B. Materials and methods • i. Hep G2 cells were seeded into six-well dishes at 30,0000 cells/well in MEM-supplemented media with 10% FBS. Cells were grown to near confluency and exposed to • I. media alone • II. Mevastatin 5ΦMol (Cholestrol-lowering Statin drug) and, • III. HMG CoA Reductase peptides at 1, 10 and 100 ΦMol. • ii. All treatments were carried out in triplicate. After 24 hrs the media was removed and saved. • iii. The cells were washed with 1 ml of PBS and combined with the media. The cells were harvested with 1 ml of 0.1 N NaOH. • iv. Samples, both media and cells, were saponified with 0.5 ml 50% KOH, 3 ml ethanol, separately at 80EC for 2 hrs. • v. After cooling, the samples were extracted twice with petroleum ether and washed with NaOH. • vi. The samples were the dried under nitrogen and suspended in 200 Φl ethanol. • vii. 50 Φl of this suspension was used for determination of cholesterol. Cholesterol was determined in the samples and standards using colorimetric assay (Sigma Kit). • viii. Protein was determined by Lowry's method and the results were expressed as Φgm cholesterol/mg protein. C. Results • i.
Molecule,Cholesterol Lowering in % of Control (5 ΦM),Cholesterol Content Cell (5 ΦM),Cholesterol Content Media (5 ΦM),Total Cholesterol (5 ΦM),Cholesterol Lowering in % of Control (1 ΦM),Cholesterol Content Cell (1 ΦM),Cholesterol Content Media (1 ΦM),Cholesterol Lowering in % of Control (10 ΦM),Cholesterol Content Cell (10 ΦM),Cholesterol Content Media (10 ΦM),Cholesterol Lowering in % of Control (100 ΦM),Cholesterol Content Cell (100 ΦM),Cholesterol Content Media (100 ΦM),Total Cholesterol (1 ΦM),Total Cholesterol (10 ΦM),Total Cholesterol (100 ΦM)
"CC[C@H](C)C(=O)O[C@H]1CCC=C2C=C[C@H](C)[C@H](CC[C@@H]3C[C@@H](O)CC(=O)O3)[C@H]21 [Mevastatin, reference compound]",19.0% and 18.0%,125.0 ± 4.6 Φ gm/mg protein and 124.4 ± 4.4 Φ gm/mg protein,37.5 ± 3.0 Φ gm/mg protein and 57.5 ± 5.2 Φ gm/mg protein,162.6 ± 7.6 Φ gm/mg protein and 182.0 ± 7.0 Φ gm/mg protein,,,,,,,,,,,,
"N-QKCDSVEE-C [Peptide 4, oligopeptide corresponding to a hydrophilic amino acid maximum of human hydroxy-methyl-glutaryl-CoA-reductase]",,,,,8.0%,134.7 ± 3.2 Φ gm/mg protein,50.4 ± 2.5 Φ gm/mg protein,10.0%,126.1 ± 4.2 Φ gm/mg protein,49.0 ± 1.0 Φ gm/mg protein,9.0%,127.7 ± 9.3 Φ gm/mg protein,53.8 ± 0.5 Φ gm/mg protein,184.3 ± 5.5 Φ gm/mg protein,175.2 ± 3.8 Φ gm/mg protein,181.7 ± 9.3 Φ gm/mg protein
"N-SQDEVREN-C [Peptide 1, oligopeptide corresponding to a hydrophilic amino acid maximum of human hydroxy-methyl-glutaryl-CoA-reductase]",,,,,28.0%,92.5 ± 4.7 Φ gm/mg protein,65.2 ± 4.0 Φ gm/mg protein,30.0%,88.6 ± 1.6 Φ gm/mg protein,60.6 ± 0.5 Φ gm/mg protein,30.0%,94.0 ± 4.0 Φ gm/mg protein,61.1 ± 2.4 Φ gm/mg protein,158.7 ± 5.6 Φ gm/mg protein,149.1 ± 2.0 Φ gm/mg protein,155.3 ± 6.4 Φ gm/mg protein
"N-ELSRESREGR-C [Peptide 2, oligopeptide corresponding to a hydrophilic amino acid maximum of human hydroxy-methyl-glutaryl-CoA-reductase]",,,,,29.0%,94.0 ± 8.3 Φ gm/mg protein,64.3 ± 4.2 Φ gm/mg protein,33.0%,85.0 ± 8.4 Φ gm/mg protein,63.7 ± 9.5 Φ gm/mg protein,34.0%,86.0 ± 4.7 Φ gm/mg protein,59.0 ± 6.0 Φ gm/mg protein,158.3 ± 6.3 Φ gm/mg protein,148.6 ± 11.8 Φ gm/mg protein,146.9 ± 8.8 Φ gm/mg protein
"N-EETGINRERKVE-C [Peptide 5, oligopeptide corresponding to a hydrophilic amino acid maximum of human hydroxy-methyl-glutaryl-CoA-reductase]",,,,,1.5%,140.7 ± 8.6 Φ gm/mg protein,56.8 ± 1.0 Φ gm/mg protein,0.0%,149.0 ± 4.4 Φ gm/mg protein,50.7 ± 1.0 Φ gm/mg protein,0.0%,161.7 ± 23.5 Φ gm/mg protein,48.0 ± 1.6 Φ gm/mg protein,197.0 ± 9.2 Φ gm/mg protein,200.0 ± 5.0 Φ gm/mg protein,210.0 ± 25.0 Φ gm/mg protein
"N-RVLEEEENK-C [Peptide 3, oligopeptide corresponding to a hydrophilic amino acid maximum of human hydroxy-methyl-glutaryl-CoA-reductase]",,,,,10.0%,137.3 ± 4.5 Φ gm/mg protein,64.0 ± 2.7 Φ gm/mg protein,10.0%,135.0 ± 4.5 Φ gm/mg protein,65.5 ± 4.7 Φ gm/mg protein,10.0%,135.0 ± 7.0 Φ gm/mg protein,65.5 ± 1.4 Φ gm/mg protein,201.3 ± 3.3 Φ gm/mg protein,200.7 ± 9.0 Φ gm/mg protein,200.5 ± 5.4 Φ gm/mg protein
"N-EPEIELPREPRPNEE-C [Peptide 6, oligopeptide corresponding to a hydrophilic amino acid maximum of human hydroxy-methyl-glutaryl-CoA-reductase]",,,,,4.0%,144.3 ± 7.5 Φ gm/mg protein,47.4 ± 0.5 Φ gm/mg protein,8.0%,136.0 ± 12.2 Φ gm/mg protein,48.0 ± 3.4 Φ gm/mg protein,9.0%,132.0 ± 4.4 Φ gm/mg protein,50.4 ± 1.0 Φ gm/mg protein,192.0 ± 8.0 Φ gm/mg protein,184.0 ± 8.4 Φ gm/mg protein,182.4 ± 4.8 Φ gm/mg protein
